In the supplement of paper PMC4862054:
Where “and” joins values, the source holds several entries; their conditions need not be identical. Equal entries are not always repeated.

Columns and labels:
Assay in all cases: drug sensitivity score (DSS), CellTiter-Blue viability (DSS (AUC-based score)); higher = stronger viability inhibition; extreme values may be limits of the assay
Conditions in all cases: incubation time: 72 h
CAL-120 = test system: CAL-120
Method: (§1)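 DSRT with the CellTiter-Blue (resazurin reduction) viability readout, fluorescence 560/590 nm, 72 h incubation. Plates were normalised to DMSO and benzethonium chloride controls. DSS is computed from the area under the fitted dose-response curve (5 or 9 concentrations).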

HCC1937 = test system: HCC1937
Method: as §1

HCC1143 = test system: HCC1143
Method: as §1

Hs578T = test system: Hs578T
Method: as §1

SK-BR-3 = test system: SK-BR-3
Method: as §1

MDA-MB-231 = test system: MDA-MB-231
Method: as §1

MDA-MB-436 = test system: MDA-MB-436
Method: as §1

MFM-223 = test system: MFM-223
Method: as §1

CAL-85-1 = test system: CAL-85-1
Method: as §1

CAL-51 = test system: CAL-51
Method: as §1

DU-4475 = test system: DU-4475
Method: as §1

HDQ-P1 = test system: HDQ-P1
Method: as §1

HCC1599 = test system: HCC1599
Method: as §1

CAL-148 = test system: CAL-148
Method: as §1

BT-549 = test system: BT-549
Method: as §1

MDA-MB-468 = test system: MDA-MB-468
Method: as §1

BT-474 = test system: BT-474
Method: as §1

| Compound | drug sensitivity score (CAL-120) | drug sensitivity score (HCC1937) | drug sensitivity score (HCC1143) | drug sensitivity score (Hs578T) | drug sensitivity score (SK-BR-3) | drug sensitivity score (MDA-MB-231) | drug sensitivity score (MDA-MB-436) | drug sensitivity score (MFM-223) | drug sensitivity score (CAL-85-1) | drug sensitivity score (CAL-51) | drug sensitivity score (DU-4475) | drug sensitivity score (HDQ-P1) | drug sensitivity score (HCC1599) | drug sensitivity score (CAL-148) | drug sensitivity score (BT-549) | drug sensitivity score (MDA-MB-468) | drug sensitivity score (BT-474) |
| --- | --- | --- | --- | --- | --- | --- | --- | --- | --- | --- | --- | --- | --- | --- | --- | --- | --- |
| C/C(=C\c1csc(C)n1)[C@@H]1C[C@@H]2O[C@]2(C)CCC[C@H](C)[C@H](O)[C@@H](C)C(=O)C(C)(C)[C@@H](O)CC(=O)N1 [Ixabepilone] | 0.647 | 5.41 | 1.78 | 2.45 | 3.73 | 10.5 | 4.17 | 2.45 | 2.08 | 0.607 | 2.31 | 0 | 1.1 | 2.58 | 3.35 | 3.09 | 2.15 |
| C=CCn1c(=O)c2cnc(Nc3ccc(N4CCN(C)CC4)cc3)nc2n1-c1cccc(C(C)(C)O)n1 [MK1775] | 16 | 15 | 9.62 | 14.2 | 20.4 | 15 | 13.3 | 12.4 | 11.1 | 16.2 | 15 | 13.6 | 7.82 | 18.3 | 13.3 | 11.5 | 13 |
| CN(Cc1cnc2nc(N)nc(N)c2n1)c1ccc(C(=O)N[C@@H](CCC(=O)O)C(=O)O)cc1 [Methotrexate] | 17.3 | 0 | 10.5 | 4.17 | 16.2 | 0 | 0 | 0 | 9.69 | 15.1 | 0 | 0 | 0 | 9.98 | 0 | 18.6 | 0 |
| COc1c2occc2cc2ccc(=O)oc12 [Methoxsalen] | 0 | 0 | 0 | 0 | 0 | 0 | 0 | 0 | 0.682 | 0 | 0.558 | 0 | 0 | 1.28 | 0 | 0 | 0 |
| CO[C@@H]1[C@H](N(C)C(=O)c2ccccc2)C[C@H]2O[C@]1(C)n1c3ccccc3c3c4c(c5c6ccccc6n2c5c31)C(=O)NC4 [Midostaurin] | 8.21 | 10 | 4.83 | 14.9 | 6.46 | 9.28 | 8.07 | 4.68 | 3.45 | 19.4 | 15.8 | 10.9 | 3.48 | 0 | 9.72 | 9.5 | 0 |
| CO[C@@]12[C@H](COC(N)=O)C3=C(C(=O)C(C)=C(N)C3=O)N1C[C@@H]1N[C@@H]12 [Mitomycin C] | 2.85 | 14.1 | 8.46 | 4.97 | 9.21 | 5.97 | 6.47 | 4.69 | 4.52 | 2.74 | 3.3 | 2.19 | 8.65 | 5.96 | 4.28 | 7.16 | 3.1 |
| CCNC(=O)c1noc(-c2cc(C(C)C)c(O)cc2O)c1-c1ccc(CN2CCOCC2)cc1 [NVP-AUY922] | 21.3 | 26.1 | 9.99 | 18.8 | 22.8 | 17.3 | 20.7 | 20.9 | 16 | 18.6 | 21.7 | 18 | 9.96 | 18.1 | 19.6 | 19.4 | 15.2 |
| CC1(C)CCC(c2ccc(Cl)cc2)=C(CN2CCN(c3ccc(C(=O)NS(=O)(=O)c4ccc(N[C@H](CCN5CCOCC5)CSc5ccccc5)c(S(=O)(=O)C(F)(F)F)c4)cc3)CC2)C1 [Navitoclax] | 6.12 | 0 | 0 | 0 | 0 | 7.75 | 0 | 2.7 | 0 | 0 | 17.2 | 9.87 | 5.97 | 4.37 | 3.17 | 3.12 | 0 |
| Cc1cn(-c2cc(NC(=O)c3ccc(C)c(Nc4nccc(-c5cccnc5)n4)c3)cc(C(F)(F)F)c2)cn1 [Nilotinib] | 0 | 6.24 and 6.45 | 0 | 0 | 0 | 4.55 and 5.18 | 0 | 0 | 0 | 0 | 0 | 0 | 0 | 0 | 6.16 and 6.02 | 0 | 0 |
| C=CCN(/C=C1/C(=O)O[C@H](COC)[C@@]2(C)C1=C(O)C(=O)C1=C2[C@H](OC(C)=O)C[C@]2(C)C(=O)CC[C@@H]12)CC=C [PX-866] | 2.93 | 5.15 | 3.95 | 3.48 | 9.05 | 5.75 | 0 | 0 | 0 | 0 | 0 | 3.65 | 0 | 0 | 0 | 8.51 | 5.22 |
| CC[C@H](CO)Nc1nc(NCc2ccccc2)c2ncn(C(C)C)c2n1 [Roscovitine] | 0 | 0 | 5.44 | 2.74 | 0 | 0 | 0.894 | 0 | 0 | 0 | 0 | 0 | 2.39 | 0 | 2.4 | 0 | 0 |
